Results as given in patent US20260200946A1, “KRAS(G12V) INHIBITORS” (Ranok Therapeutics (Hangzhou) Co. Ltd., priority 2022, published 2026).

What was measured:
[1] = target: T1, KRAS(G12V)/SOS1 (Homo sapiens, UniProt P01116, G12V); experiment: KRAS(G12V)/SOS1 homogeneous time-resolved fluorescence (HTRF) assay; format: binding; settings: absence of GTP; 4° C., 3 hours; read-out: HTRF of KRASG12V-SOS1
T1 construct: purchased Cisbio 63ADK000CB18PEH
Experimental: Binding of test compounds to KRAS(G12V) target protein, which in turn blocks KRAS(G12V) interaction with the SOS1 protein, was measured in the absences of GTP by homogeneous time-resolved fluorescence using the KRAS-G12V/SOS1 Binding Assay Kit (Cisbio, 63ADK000CB18PEH), following the manufacturer's instructions, except as noted. 3-fold serial dilutions of each test compound were prepared ranging from 20 µM to 1.02 nM. The test compound was mixed and incubated with reaction components, incubated in a sealed plate at 4° C. for 3 hours and fluorescence was measured using a PerkinElmer Envision plate reader. The KRAS(G12V)-SOS1 IC50 values (the concentration of 50% of the maximal inhibition) were calculated using GraphPad Prism 8.0 software.

[2] = test system: SW620 cells; experiment: Cancer cell line proliferation (CellTiter-Glo), SW620; format: cell-based; settings: Homo sapiens, SW-620, SW620 colorectal adenocarcinoma, homozygous G12V, 72 hr
Experimental: Cell lines were cultured essentially according to ATCC recommendations. SW620 and NCIH727 cells were plated in 384-well tissue culture plates at 1,000 cells/well and incubated at 37° C./5% CO2 for 72 hr in 40 μl of media. […] Each cell line was then treated with test compounds at various concentrations with a final concentration of 0.5% DMSO/well, and then incubated at 37° C./5% CO2 for 72 hr. 40 μl of CellTiter-Glo® Reagent (Promega Corporation, Madison, WI) was added to each well and processed according manufacturer's protocol. Results were analyzed and IC50 values were calculated in GraphPad 8.0 software.

[3] = test system: NCIH727 cells; experiment: Cancer cell line proliferation (CellTiter-Glo), NCI-H727; format: cell-based; settings: Homo sapiens, 72 h, NCIH727 lung carcinoid, heterozygous G12V
How it was run: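 NCI-H727 cells (1,000/well) were grown 72 h at 37 °C/5% CO2, then exposed to compound at various concentrations (0.5% DMSO final) for a further 72 h. Viability was read by CellTiter-Glo luminescence, and IC50 values were calculated from the dose-response.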

T1 sequence (P01116 1-188 isoform P01116-2 G12V): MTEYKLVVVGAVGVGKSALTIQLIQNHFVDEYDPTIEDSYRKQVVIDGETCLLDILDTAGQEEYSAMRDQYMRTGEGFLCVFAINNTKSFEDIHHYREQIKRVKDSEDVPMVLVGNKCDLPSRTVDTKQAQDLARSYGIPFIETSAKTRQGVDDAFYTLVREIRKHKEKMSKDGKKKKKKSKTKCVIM

Structure (SMILES)	IC50 [1]	EC50 [2]	EC50 [3]
C#Cc1c(F)ccc2cc(O)cc(-c3ncc4c(N5CC6CCC(C5)N6)nc(OCC5(CN6CCC(F)CC6)CC5)nc4c3F)c12 [Example 1, 4-(4-(3,8-diazabicyclo[3.2.1]octan-3-yl)-8-fluoro-2-((1-((4-fluoropiperidin-1-yl)methyl)cyclopropyl)methoxy)pyrido[4,3-d]pyrimidin-7-yl)-5-ethynyl-6-fluoronaphthalen-2-ol]	0.1 to 1 µM	–	–
C#Cc1c(F)ccc2cc(O)cc(-c3ncc4c(N5CC6CCC(C5)N6C(=O)CC#N)nc(OCC5(CN6CCC(F)CC6)CC5)nc4c3F)c12 [Example 2]	< 0.1 µM	0.1 to 1 µM	0.1 to 1 µM
C#Cc1c(F)ccc2cc(O)cc(-c3ncc4c(N5CC6CCC(C5)N6C(=O)CCC#N)nc(OCC5(CN6CCC(F)CC6)CC5)nc4c3F)c12 [Example 3]	< 0.1 µM	0.1 to 1 µM	> 1 µM
C#Cc1c(F)ccc2cc(O)cc(-c3ncc4c(N5CC6CCC(C5)N6C(=O)CC(C)C)nc(OCC5(CN6CCC(F)CC6)CC5)nc4c3F)c12 [Example 4]	0.1 to 1 µM	–	> 1 µM
C#Cc1c(F)ccc2cc(O)cc(-c3ncc4c(N5CC6CCC(C5)N6C(=O)CC(C)(C)C)nc(OCC5(CN6CCC(F)CC6)CC5)nc4c3F)c12 [Example 5]	0.1 to 1 µM	> 1 µM	> 1 µM
C#Cc1c(F)ccc2cc(O)cc(-c3ncc4c(N5CC6CCC(C5)N6C(=O)NC(C)(C)C)nc(OCC5(CN6CCC(F)CC6)CC5)nc4c3F)c12 [Example 6]	< 0.1 µM	0.1 to 1 µM	0.1 to 1 µM
C#Cc1c(F)ccc2cc(O)cc(-c3ncc4c(N5CC6CCC(C5)N6C(=O)NC(C)C)nc(OCC5(CN6CCC(F)CC6)CC5)nc4c3F)c12 [Example 7]	< 0.1 µM	> 1 µM	> 1 µM
C#Cc1c(F)ccc2cc(O)cc(-c3ncc4c(N5CC6CCC(C5)N6C(=O)N(C)C)nc(OCC5(CN6CCC(F)CC6)CC5)nc4c3F)c12 [Example 8]	< 0.1 µM	> 1 µM	> 1 µM
C#Cc1c(F)ccc2cc(O)cc(-c3ncc4c(N5CC6CCC(C5)N6C(=O)NC5CCOC5)nc(OCC5(CN6CCC(F)CC6)CC5)nc4c3F)c12 (stereo not drawn) [Example 9]	< 0.1 µM	–	> 1 µM
C#Cc1c(F)ccc2cc(O)cc(-c3ncc4c(N5CC6CCC(C5)N6C(=O)Nc5ccn[nH]5)nc(OCC5(CN6CCC(F)CC6)CC5)nc4c3F)c12 [Example 10]	< 0.1 µM	–	> 1 µM
C#Cc1c(F)ccc2cc(O)cc(-c3ncc4c(N5CC6CCC(C5)N6C(=O)OCC)nc(OCC5(CN6CCC(F)CC6)CC5)nc4c3F)c12 [Example 11]	0.1 to 1 µM	0.1 to 1 µM	0.1 to 1 µM
C#Cc1c(F)ccc2cc(O)cc(-c3ncc4c(N5CC6CCC(C5)N6S(=O)(=O)CC(C)C)nc(OCC5(CN6CCC(F)CC6)CC5)nc4c3F)c12 [Example 14]	0.1 to 1 µM	0.1 to 1 µM	> 1 µM
C#Cc1c(F)ccc2cc(O)cc(-c3ncc4c(N5CC6CCC(C5)N6C(=O)C(O)O)nc(OCC5(CN6CCC(F)CC6)CC5)nc4c3F)c12 [Example 15]	0.1 to 1 µM	–	> 1 µM
C#Cc1c(F)ccc2cc(O)cc(-c3ncc4c(N5CC6CCC(C5)N6C(=O)OCC(C)C)nc(OCC5(CN6CCC(F)CC6)CC5)nc4c3F)c12 [Example 16]	0.1 to 1 µM	> 1 µM	> 1 µM
C#Cc1c(F)ccc2cc(O)cc(-c3nc(OC)c4c(N5CC6CCC(C5)N6C(=O)CC(F)(F)F)nc(OCC5(CN6CCC(F)CC6)CC5)nc4c3F)c12 [Example 20]	< 0.1 µM	–	–
C#Cc1c(F)ccc2cc(O)cc(-c3ncc4c(N5CC6CCC(C5)N6C(=O)NCC(C)(C)O)nc(OCC5(CN6CCC(F)CC6)CC5)nc4c3F)c12 [Example 53]	< 0.1 µM	–	–
C#CCC(=O)N1C2CCC1CN(c1nc(OCC3(CN4CCC(F)CC4)CC3)nc3c(F)c(-c4cc(O)cc5ccc(F)c(C#C)c45)ncc13)C2 [Example 54]	< 0.1 µM	–	–
C#Cc1c(F)ccc2cc(O)cc(-c3nc(OC)c4c(N5CC6CCC(C5)N6C(=O)NC5CCCC5)nc(OCC5(CN6CCC(F)CC6)CC5)nc4c3F)c12 [Example 55]	< 0.1 µM	–	–
C#Cc1c(F)ccc2cc(O)cc(-c3ncc4c(N5CC6CCC(C5)N6S(=O)(=O)NCCN(C)C)nc(OCC5(CN6CCC(F)CC6)CC5)nc4c3F)c12 [Example 56]	< 0.1 µM	–	–
C#CCCC(=O)N1C2CCC1CN(c1nc(OCC3(CN4CCC(F)CC4)CC3)nc3c(F)c(-c4cc(O)cc5ccc(F)c(C#C)c45)nc(OC)c13)C2 [Example 61]	< 0.1 µM	–	0.1 to 1 µM

Structure (SMILES)	IC50 [1]	EC50 [2]	EC50 [3]
C#Cc1c(F)ccc2cc(O)cc(-c3nc(OC)c4c(N5CC6CCC(C5)N6C(=O)NCCF)nc(OCC5(CN6CCC(F)CC6)CC5)nc4c3F)c12 [Example 62]	< 0.1 µM	–	0.1 to 1 µM
C#Cc1c(F)ccc2cc(O)cc(-c3nc(OC)c4c(N5CC6CCC(C5)N6C(=O)NC(C)(C#N)CC)nc(OCC5(CN6CCC(F)CC6)CC5)nc4c3F)c12 (stereo not drawn) [Example 64]	< 0.1 µM	–	< 0.1 µM
C#Cc1c(F)ccc2cc(O)cc(-c3nc(OC)c4c(N5CC6CCC(C5)N6C(=O)NC(C)(C)C#N)nc(OCC5(CN6CCC(F)CC6)CC5)nc4c3F)c12 [Example 65]	< 0.1 µM	–	< 0.1 µM
C#Cc1c(F)ccc2cc(O)cc(-c3nc(OC)c4c(N5CC6CCC(C5)N6C(=O)CCC#N)nc(OCC5(CN6CC7CC7C6)CC5)nc4c3F)c12 (stereo not drawn) [Example 99]	–	0.1 to 1 µM	< 0.1 µM
C#Cc1c(F)ccc2cc(O)cc(-c3nc(OC)c4c(N5CC6CCC(C5)N6C(=O)NCC#N)nc(OCC5(CN6CC7CC7C6)CC5)nc4c3F)c12 (stereo not drawn) [Example 104]	–	0.1 to 1 µM	0.1 to 1 µM
C#Cc1c(F)ccc2cc(O)cc(-c3nc(OC)c4c(N5CC6CCC(C5)N6C(=O)NC(C)C#N)nc(OCC5(CN6CC7CC7C6)CC5)nc4c3F)c12 (stereo not drawn) [Example 105]	–	0.1 to 1 µM	< 0.1 µM
C#Cc1c(F)ccc2cc(O)cc(-c3nc(OC)c4c(N5CC6CCC(C5)N6C(=O)C(C#N)CC#N)nc(OCC5(CN6CC7CC7C6)CC5)nc4c3F)c12 (stereo not drawn) [Example 109]	–	0.1 to 1 µM	0.1 to 1 µM
[2H]C([2H])([2H])Oc1nc(-c2cc(O)cc3ccc(F)c(C#C)c23)c(F)c2nc(OCC3(CN4CC5CC5C4)CC3)nc(N3CC4CCC(C3)N4C(=O)C(C)C#N)c12 (stereo not drawn) [Example 118]	< 0.1 µM	–	0.1 to 1 µM
[2H]C([2H])([2H])Oc1nc(-c2cc(O)cc3ccc(F)c(C#C)c23)c(F)c2nc(OCC3(CN4CC5CC5C4)CC3)nc(N3CC4CCC(C3)N4C(=O)C(C)(C)C#N)c12 (stereo not drawn) [Example 119]	< 0.1 µM	–	> 1 µM
C#Cc1c(F)ccc2cc(O)cc(-c3nc(OC)c4c(N5CC6CCC(C5)N6C(=O)NCC(F)(F)F)nc(OCC5(CN6CC7CC7C6)CC5)nc4c3F)c12 (stereo not drawn) [Example 129]	–	0.1 to 1 µM	< 0.1 µM
C#Cc1c(F)ccc2cc(O)cc(-c3nc(OC)c4c(N5CC6CCC(C5)N6C(=O)CC(C)C#N)nc(OCC5(CN6CC7CC7C6)CC5)nc4c3F)c12 (stereo not drawn) [Example 140]	–	0.1 to 1 µM	< 0.1 µM
C#Cc1c(F)ccc2cc(O)cc(-c3nc(OC)c4c(N5CC6CCC(C5)N6C(=O)CCOC(F)(F)F)nc(OCC5(CN6CC7CC7C6)CC5)nc4c3F)c12 (stereo not drawn) [Example 147]	–	0.1 to 1 µM	0.1 to 1 µM
C#Cc1c(F)ccc2cc(O)cc(-c3nc(OC)c4c(N5CC6CCC(C5)N6C(=O)NC56CC(C#N)(C5)C6)nc(OCC5(CN6CC7CC7C6)CC5)nc4c3F)c12 (stereo not drawn) [Example 194]	–	–	0.1 to 1 µM
C#Cc1c(F)ccc2cc(O)cc(-c3nc(OC)c4c(N5CC6CCC(C5)N6C(=O)N[C@@H]5CCC[C@@H]5C#N)nc(OCC5(CN6CC7CC7C6)CC5)nc4c3F)c12 (stereo partly drawn) [Example 195]	–	–	0.1 to 1 µM
C#Cc1c(F)ccc2cc(O)cc(-c3nc(OC)c4c(N5CC6CCC(C5)N6C(=O)NC5(C#N)COC5)nc(OCC5(CN6CC7CC7C6)CC5)nc4c3F)c12 (stereo not drawn) [Example 196]	–	–	0.1 to 1 µM
C#Cc1c(F)ccc2cc(O)cc(-c3nc(OC)c4c(N5CC6CCC(C5)N6C(=O)NC5(C#N)CCC5)nc(OCC5(CN6CC7CC7C6)CC5)nc4c3F)c12 (stereo not drawn) [Example 197]	–	–	< 0.1 µM
C#Cc1c(F)ccc2cc(O)cc(-c3nc(OC)c4c(N5CC6CCC(C5)N6C(=O)NC56CC(C5)C6)nc(OCC5(CN6CC7CC7C6)CC5)nc4c3F)c12 (stereo not drawn) [Example 198]	–	–	< 0.1 µM
C#Cc1c(F)ccc2cc(O)cc(-c3nc(OC)c4c(N5CC6CCC(C5)N6C(=O)NC5COC5)nc(OCC5(CN6CC7CC7C6)CC5)nc4c3F)c12 (stereo not drawn) [Example 199]	–	–	< 0.1 µM
C#Cc1c(F)ccc2cc(O)cc(-c3nc(OC)c4c(N5CC6CCC(C5)N6C(=O)N5CC(F)C5)nc(OCC5(CN6CC7CC7C6)CC5)nc4c3F)c12 (stereo not drawn) [Example 200]	–	–	< 0.1 µM
C#Cc1c(F)ccc2cc(O)cc(-c3nc(OC)c4c(N5CC6CCC(C5)N6C(=O)N5CC(C(F)F)C5)nc(OCC5(CN6CC7CC7C6)CC5)nc4c3F)c12 (stereo not drawn) [Example 201]	–	–	0.1 to 1 µM
